Target: T1, GPR40 (Homo sapiens, UniProt O14842)
T1 construct: expressed in transfected cells; host or cells: HEK293 cells stably expressing GPR40 (Hygromycin selection)
Assay: IP1 accumulation assay in HEK293 cells stably expressing GPR40
Assay type: cell-based
Outline: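 HEK293 cells stably expressing human GPR40 were incubated with compounds (10-point, 3-fold dilution series) for 2 h at 37 °C, then IP1 was detected by HTRF (665/615 nm ratio). Effect was normalised to DMSO blank and AMG-1638 as 100%, and EC50 was derived from dose curves.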

[1] = IP1 accumulation, HEK293 cells stably expressing GPR40, 2 hours at 37° C., % effect relative to AMG-1638, table of Biological Example 1
[2] = Tables A-1a to A-7b (structure-property relationship), obtained by methods of Biological Example 1
[3] = Table A-8 (additional examples), obtained by methods of Biological Example 1

T1 sequence (O14842 whole entry): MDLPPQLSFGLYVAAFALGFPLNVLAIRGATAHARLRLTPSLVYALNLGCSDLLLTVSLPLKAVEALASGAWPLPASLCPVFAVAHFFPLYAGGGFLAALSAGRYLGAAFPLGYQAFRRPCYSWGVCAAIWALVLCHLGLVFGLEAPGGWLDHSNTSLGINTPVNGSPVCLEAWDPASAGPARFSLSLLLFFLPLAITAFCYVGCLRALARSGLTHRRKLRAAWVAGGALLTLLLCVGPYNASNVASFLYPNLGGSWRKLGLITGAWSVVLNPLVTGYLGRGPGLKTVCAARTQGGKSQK

EC50 [1] | EC50 [2] | EC50 [3] | SMILES
> 10000 nM |  |  | COc1ccc(F)c(-c2ccc(COc3cccc([C@@H](CC(=O)O)C4CC4)c3)cc2CC(C)(C)Cn2cc(CCCCCCCCCC(=O)NCCC[N+](C)(CC(=O)[O-])CC(=O)O)nn2)c1 (stereo partly shown) [Example 105]
696 nM |  |  | COc1ccc(F)c(-c2ccc(COc3cccc([C@@H](CC(=O)O)C4CC4)c3)cc2CC(C)(C)Cn2cc(CCCCCCCCCCCCCC(=O)NCCCN(CC(=O)O)CC(=O)O)nn2)c1 [Example 106]
1310 nM |  |  | COc1ccc(F)c(-c2ccc(COc3cccc([C@@H](CC(=O)O)C4CC4)c3)cc2CC(C)(C)Cn2cc(CCCCCCCCCCCCCC(=O)NCCC[N+](C)(CC(=O)O)CC(=O)O)nn2)c1 [Example 107]
312 nM |  |  | COc1ccc(F)c(-c2ccc(COc3cccc([C@@H](CC(=O)O)C4CC4)c3)cc2CC(C)(C)Cn2cc(CCCCCCCCCCCCCCC(=O)NCCCN(CC(=O)O)CC(=O)O)nn2)c1 [Example 108]
> 1000 nM |  |  | COc1ccc(F)c(-c2ccc(COc3cccc([C@@H](CC(=O)O)C4CC4)c3)cc2CC(C)(C)Cn2cc(CCCCCCCCCCCCCCC(=O)NCCC[N+](C)(CC(=O)O)CC(=O)O)nn2)c1 [Example 109]
618 nM | 618 nM |  | COc1ccc(C(=O)N(CC(C)(C)CCn2cc(CCCCCCCCC(=O)NCCN(CCC(=O)NCCN)CCC(=O)NCCN)nn2)c2cccc(C)n2)c(N2CCC(COc3cc([C@@H](CC(=O)O)C4CC4)ccn3)CC2)c1 [Example 110]
307 nM | 307 nM |  | COc1ccc(C(=O)N(CC(C)(C)CCn2cc(CCCCCCCCC(=O)NCC[N+](C)(CCC(=O)NCCN)CCC(=O)NCCN)nn2)c2cccc(C)n2)c(N2CCC(COc3cc([C@@H](CC(=O)O)C4CC4)ccn3)CC2)c1 [Example 111]
14.9 nM | 14.9 nM |  | COc1ccc(C(=O)N(CC(C)(C)CCn2cc(CCCCCCCCCCC(=O)NCCN(CCC(=O)NCCN)CCC(=O)NCCN)nn2)c2cccc(C)n2)c(N2CCC(COc3cc([C@@H](CC(=O)O)C4CC4)ccn3)CC2)c1 [Example 112]
6.27 nM | 6.27 nM |  | COc1ccc(C(=O)N(CC(C)(C)CCn2cc(CCCCCCCCCCC(=O)NCC[N+](C)(CCC(=O)NCCN)CCC(=O)NCCN)nn2)c2cccc(C)n2)c(N2CCC(COc3cc([C@@H](CC(=O)O)C4CC4)ccn3)CC2)c1 [Example 113]
0.42 nM | 0.42 nM | 0.42 nM | COc1ccc(C(=O)N(CC(C)(C)CCn2cc(CCCCCCCCCCCCC(=O)NCCN(CCC(=O)NCCN)CCC(=O)NCCN)nn2)c2cccc(C)n2)c(N2CCC(COc3cc([C@@H](CC(=O)O)C4CC4)ccn3)CC2)c1 [Example 114]
0.51 nM | 0.51 nM | 0.51 nM | COc1ccc(C(=O)N(CC(C)(C)CCn2cc(CCCCCCCCCCCCC(=O)NCC[N+](C)(CCC(=O)NCCN)CCC(=O)NCCN)nn2)c2cccc(C)n2)c(N2CCC(COc3cc([C@@H](CC(=O)O)C4CC4)ccn3)CC2)c1 [Example 115]
0.21 nM | 0.21 nM |  | COc1ccc(C(=O)N(CC(C)(C)CCn2cc(CCCCCCCCCCCCCC(=O)NCCN(CCC(=O)NCCN)CCC(=O)NCCN)nn2)c2cccc(C)n2)c(N2CCC(COc3cc([C@@H](CC(=O)O)C4CC4)ccn3)CC2)c1 [Example 116]
0.29 nM | 0.29 nM |  | COc1ccc(C(=O)N(CC(C)(C)CCn2cc(CCCCCCCCCCCCCC(=O)NCC[N+](C)(CCC(=O)NCCN)CCC(=O)NCCN)nn2)c2cccc(C)n2)c(N2CCC(COc3cc([C@@H](CC(=O)O)C4CC4)ccn3)CC2)c1 [Example 117]
0.33 nM | 0.33 nM |  | COc1ccc(C(=O)N(CC(C)(C)CCn2cc(CCCCCCCCCCCCCCC(=O)NCCN(CCC(=O)NCCN)CCC(=O)NCCN)nn2)c2cccc(C)n2)c(N2CCC(COc3cc([C@@H](CC(=O)O)C4CC4)ccn3)CC2)c1 [Example 118]
0.1 nM | 0.1 nM |  | COc1ccc(C(=O)N(CC(C)(C)CCn2cc(CCCCCCCCCCCCCCC(=O)NCC[N+](C)(CCC(=O)NCCN)CCC(=O)NCCN)nn2)c2cccc(C)n2)c(N2CCC(COc3cc([C@@H](CC(=O)O)C4CC4)ccn3)CC2)c1 [Example 119]
1290 nM |  |  | COc1ccc(F)c(-c2ccc(COc3cccc([C@@H](CC(=O)O)C4CC4)c3)cc2CC(C)(C)Cn2cc(CCCCCCCCCCCC(=O)NCCCN(CC(=O)O)CC(=O)O)nn2)c1 [Example 120]
5 nM |  |  | COc1ccc(F)c(-c2ccc(COc3cccc([C@@H](CC(=O)O)C4CC4)c3)cc2CC(C)(C)Cn2cc(CCCCCCCCCCCCCCCC(=O)NCCCN(CC(=O)O)CC(=O)O)nn2)c1 [Example 121]
1000 nM |  |  | COc1ccc(F)c(-c2ccc(COc3cccc([C@@H](CC(=O)O)C4CC4)c3)cc2CC(C)(C)Cn2cc(CCCCCCCCCCCC(=O)NCCC[N+](C)(CC(=O)[O-])CC(=O)O)nn2)c1 (stereo partly shown) [Example 122]
32.7 nM |  |  | COc1ccc(F)c(-c2ccc(COc3cccc([C@@H](CC(=O)O)C4CC4)c3)cc2CC(C)(C)Cn2cc(CCCCCCCCCCCCCCCC(=O)NCCC[N+](C)(CC(=O)[O-])CC(=O)O)nn2)c1 (stereo partly shown) [Example 123]
226 nM | 226 nM |  | COc1ccc(C(=O)N(CC(C)(C)CCn2cc(CCCCCCCCCC(=O)NCCCN(CC(=O)O)CC(=O)O)nn2)c2cccc(C)n2)c(N2CCC(COc3cc([C@@H](CC(=O)O)C4CC4)ccn3)CC2)c1 [Example 124]
617 nM | 617 nM |  | COc1ccc(C(=O)N(CC(C)(C)CCn2cc(CCCCCCCCCC(=O)NCCC[N+](C)(CC(=O)[O-])CC(=O)O)nn2)c2cccc(C)n2)c(N2CCC(COc3cc([C@@H](CC(=O)O)C4CC4)ccn3)CC2)c1 (stereo partly shown) [Example 125]
5.81 nM | 5.81 nM |  | COc1ccc(C(=O)N(CC(C)(C)CCn2cc(CCCCCCCCCCCC(=O)NCCCN(CC(=O)O)CC(=O)O)nn2)c2cccc(C)n2)c(N2CCC(COc3cc([C@@H](CC(=O)O)C4CC4)ccn3)CC2)c1 [Example 126]
6.36 nM | 6.36 nM |  | COc1ccc(C(=O)N(CC(C)(C)CCn2cc(CCCCCCCCCCCC(=O)NCCC[N+](C)(CC(=O)[O-])CC(=O)O)nn2)c2cccc(C)n2)c(N2CCC(COc3cc([C@@H](CC(=O)O)C4CC4)ccn3)CC2)c1 (stereo partly shown) [Example 127]
1.33 nM | 1.33 nM |  | COc1ccc(C(=O)N(CC(C)(C)CCn2cc(CCCCCCCCCCCCCC(=O)NCCCN(CC(=O)O)CC(=O)O)nn2)c2cccc(C)n2)c(N2CCC(COc3cc([C@@H](CC(=O)O)C4CC4)ccn3)CC2)c1 [Example 128]
0.88 nM | 0.88 nM |  | COc1ccc(C(=O)N(CC(C)(C)CCn2cc(CCCCCCCCCCCCCC(=O)NCCC[N+](C)(CC(=O)[O-])CC(=O)O)nn2)c2cccc(C)n2)c(N2CCC(COc3cc([C@@H](CC(=O)O)C4CC4)ccn3)CC2)c1 (stereo partly shown) [Example 129]
1.25 nM | 1.25 nM |  | COc1ccc(C(=O)N(CC(C)(C)CCn2cc(CCCCCCCCCCCCCCC(=O)NCCCN(CC(=O)O)CC(=O)O)nn2)c2cccc(C)n2)c(N2CCC(COc3cc([C@@H](CC(=O)O)C4CC4)ccn3)CC2)c1 [Example 130]
0.38 nM | 0.38 nM |  | COc1ccc(C(=O)N(CC(C)(C)CCn2cc(CCCCCCCCCCCCCCC(=O)NCCC[N+](C)(CC(=O)[O-])CC(=O)O)nn2)c2cccc(C)n2)c(N2CCC(COc3cc([C@@H](CC(=O)O)C4CC4)ccn3)CC2)c1 (stereo partly shown) [Example 131]
0.19 nM | 0.19 nM |  | COc1ccc(C(=O)N(CC(C)(C)CCn2cc(CCCCCCCCCCCCCCCCC(=O)NCCCN(CC(=O)O)CC(=O)O)nn2)c2cccc(C)n2)c(N2CCC(COc3cc([C@@H](CC(=O)O)C4CC4)ccn3)CC2)c1 [Example 132]
